# Measurements: paper PMC2755957 (The Journal of Biological Chemistry, 2009)
# Substitutions are numbered along the chain they refer to.
# Assays:
# [1] = target: T1, mouse Δ1–24-L-PGDS (lipocalin type prostaglandin D synthase) (Mus musculus, UniProt O09114, H111A); experiment: surface plasmon resonance; format: binding
# T1 sequence (O09114 25-189 H111A): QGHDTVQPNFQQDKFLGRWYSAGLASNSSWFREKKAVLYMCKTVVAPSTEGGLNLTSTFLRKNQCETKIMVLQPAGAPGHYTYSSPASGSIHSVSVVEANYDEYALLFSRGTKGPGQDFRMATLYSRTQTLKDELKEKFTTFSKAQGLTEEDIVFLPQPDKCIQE
# Δ^1–24-C65A + P110A = target: T2, Δ^1–24-C65A + P110A (Mus musculus, UniProt O09114, C65A/P110A); experiment: biochemical
# T2 sequence (O09114 1-189 C65A/P110A): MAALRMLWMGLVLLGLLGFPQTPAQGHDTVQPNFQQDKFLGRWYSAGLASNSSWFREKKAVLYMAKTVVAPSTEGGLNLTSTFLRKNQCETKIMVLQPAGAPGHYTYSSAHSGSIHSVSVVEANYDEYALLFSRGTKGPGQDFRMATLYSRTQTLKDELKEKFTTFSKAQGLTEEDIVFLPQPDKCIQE
# Δ^1–24-L-PGDS + P110A = target: T3, Δ^1–24-L-PGDS + P110A (Mus musculus, UniProt O09114, P110A); experiment: biochemical
# T3 sequence (O09114 1-189 P110A): T2 sequence (O09114 1-189 C65A/P110A) with A65C
# [2] = target: T4, mouse Δ1–24-L-PGDS (lipocalin type prostaglandin D synthase) (Mus musculus, UniProt O09114, H116A); experiment: biochemical
# T4 sequence (O09114 25-189 H116A): T1 sequence (O09114 25-189 H111A) with A87H, H92A
# [3] = target: T5, Δ^1–24-L-PGDS + S45A/T67A (Mus musculus, UniProt O09114, S45A/T67A); experiment: biochemical
# T5 sequence (O09114 1-189 S45A/T67A): T2 sequence (O09114 1-189 C65A/P110A) with S45A, A65C, T67A, A110P
# [4] = target: T4, mouse Δ1–24-L-PGDS (lipocalin type prostaglandin D synthase); experiment: surface plasmon resonance; format: binding
# [5] = target: T6, Δ^1–24-L-PGDS + S45A/S81A (Mus musculus, UniProt O09114, S45A/S81A); experiment: biochemical
# T6 sequence (O09114 1-189 S45A/S81A): T2 sequence (O09114 1-189 C65A/P110A) with S45A, A65C, S81A, A110P
structure (smiles),measurement,setting,value
CCCCC[C@H](O)/C=C/[C@H]1[C@@H]2CO[C@@H](C2)[C@@H]1C/C=C\CCCC(=O)O [U-44069],Kd,[1],20.6 ± 2.3 µM
same,Kd,Δ^1–24-C65A + P110A,22.4 ± 1.4 µM
same,Kd,Δ^1–24-L-PGDS + P110A,13.5 ± 3.1 µM
same,Kd,[2],27.3 ± 2.5 µM
same,Kd,[3],7.2 ± 1.6 µM
CCCCC[C@H](O)/C=C/[C@@H]1[C@@H](C/C=C\CCCC(=O)O)[C@H]2CO[C@@H]1C2 [U-46619],Kd,[4],48.5 ± 4.4 µM
same,Kd,[1],20.3 ± 1.3 µM
same,Kd,[3],19.1 ± 2.5 µM
same,Kd,[5],19.1 ± 2.6 µM
